Measured values: patent publication US6403594B1, “Benzopyran derivatives” (Recordati, S.A. Chemical and Pharmaceutical Company, priority 1999, dated 2002)

How the values were obtained:
[1] = molecular target: T1, α1a-adrenoceptor (recombinant) (Homo sapiens, UniProt P35348); assay: Radioligand binding, cloned α1a-adrenoceptor ([3H]prazosin); details: read-out: Affinity for recombinant α1a-adrenoceptor, cloned receptors (Ki)
T1 construct: expressed in transfected cells
T1 sequence (P35348 1-466): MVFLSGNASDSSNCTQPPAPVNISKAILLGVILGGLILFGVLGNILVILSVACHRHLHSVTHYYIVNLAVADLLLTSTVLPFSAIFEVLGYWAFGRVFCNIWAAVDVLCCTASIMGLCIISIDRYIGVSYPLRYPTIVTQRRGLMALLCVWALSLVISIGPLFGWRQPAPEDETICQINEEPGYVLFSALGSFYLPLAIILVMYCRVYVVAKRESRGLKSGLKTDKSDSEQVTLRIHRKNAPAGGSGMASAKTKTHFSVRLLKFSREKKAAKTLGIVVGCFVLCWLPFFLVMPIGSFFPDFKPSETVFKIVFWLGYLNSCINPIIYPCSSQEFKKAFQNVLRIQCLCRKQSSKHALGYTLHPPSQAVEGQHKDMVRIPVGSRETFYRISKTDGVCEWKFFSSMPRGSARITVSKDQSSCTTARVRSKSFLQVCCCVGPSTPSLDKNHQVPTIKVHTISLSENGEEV
Protocol: (§1) Determination of affinity for cloned subtypes of α1-adrenoceptor subtypes was performed in membranes from cells transfected by electroporation with DNA expressing the genes encoding each α1-adrenoceptor subtype.
(§2) Non-specific binding was determined in the presence of 10 μM phentolamine.
(§3) Incubation was stopped by addition of ice-cold Tris buffer and rapid filtration through 0.2% polyethyleneimine-pretreated Schleicher & Schuell GF52 filters.
(§4) Data were expressed as mean Ki.

[2] = molecular target: T2, α1b-adrenoceptor (recombinant) (Homo sapiens, UniProt P35368); assay: Radioligand binding, cloned α1b-adrenoceptor ([3H]prazosin); details: read-out: Affinity for recombinant α1b-adrenoceptor, cloned receptors (Ki)
T2 construct: expressed in transfected cells
T2 sequence (P35368 1-520): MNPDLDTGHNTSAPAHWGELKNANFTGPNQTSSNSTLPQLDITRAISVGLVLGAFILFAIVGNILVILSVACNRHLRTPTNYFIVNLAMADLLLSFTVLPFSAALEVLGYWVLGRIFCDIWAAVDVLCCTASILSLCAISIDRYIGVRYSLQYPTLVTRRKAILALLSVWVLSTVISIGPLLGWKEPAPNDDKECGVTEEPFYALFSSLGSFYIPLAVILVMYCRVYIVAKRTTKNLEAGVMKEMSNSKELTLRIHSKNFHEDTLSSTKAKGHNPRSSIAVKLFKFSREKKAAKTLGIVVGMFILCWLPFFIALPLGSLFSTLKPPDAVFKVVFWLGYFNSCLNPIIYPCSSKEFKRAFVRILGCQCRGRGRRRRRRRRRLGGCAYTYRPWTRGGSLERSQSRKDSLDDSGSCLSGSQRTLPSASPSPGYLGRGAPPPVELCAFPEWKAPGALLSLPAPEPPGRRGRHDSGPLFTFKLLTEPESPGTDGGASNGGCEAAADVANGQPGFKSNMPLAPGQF
Protocol: as §1, §2, §3, §4

[3] = molecular target: T3, 5HT1A-serotoninergic receptor (Homo sapiens, UniProt P08908); assay: Radioligand binding, cloned 5-HT1A-serotoninergic receptor in HeLa membranes ([3H]8-OH-DPAT); set-up: expressed in transfected cells; host or cells: HeLa; details: cloned human 5-HT1A receptor in HeLa membranes, mean Ki, read-out: Affinity for 5-HT1A receptor, cloned receptors (Ki)
T3 sequence (P08908 1-422): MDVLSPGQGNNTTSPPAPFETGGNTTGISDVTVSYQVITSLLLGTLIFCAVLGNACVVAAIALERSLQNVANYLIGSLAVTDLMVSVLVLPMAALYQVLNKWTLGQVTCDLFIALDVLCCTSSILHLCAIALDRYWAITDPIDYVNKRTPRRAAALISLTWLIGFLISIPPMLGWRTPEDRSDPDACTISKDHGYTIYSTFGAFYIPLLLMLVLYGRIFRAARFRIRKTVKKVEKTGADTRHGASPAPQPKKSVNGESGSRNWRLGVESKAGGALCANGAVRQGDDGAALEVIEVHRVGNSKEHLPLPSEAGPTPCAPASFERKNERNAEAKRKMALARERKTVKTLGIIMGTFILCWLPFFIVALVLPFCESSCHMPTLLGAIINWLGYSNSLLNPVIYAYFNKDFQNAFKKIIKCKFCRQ
Protocol: HeLa cells were grown as monolayers in Dulbecco's Modified Eagle medium (DMEM) supplemented with 10% foetal calf serum and gentamicin (100 μg/mL), 5% CO2, at 37° C. The cells were detached from the growth flask at 95% confluence by a cell scraper and were lysed in ice-cold Tris-5-mM and EDTA-5-mM buffer (pH 7.4). The homogenates were centrifuged at 40000×g×20 minutes and the membranes were resuspended in a small volume of ice-cold buffer containing Tris 5 mM and EDTA 5 mM (pH 7.4), and immediately frozen and stored at −70° C. until use.
Non-specific binding was determined in the presence of 10 μM 5-HT. The incubation was stopped by addition of ice-cold Tris buffer and rapid filtration through 0.2% polyethyleneimine-pretreated Schleicher & Schuell filters.
as §4

[4] = molecular target: T4, α1d-adrenoceptor (recombinant) (Homo sapiens, UniProt P25100); assay: Radioligand binding, cloned α1d-adrenoceptor ([3H]prazosin); details: read-out: Affinity for recombinant α1d-adrenoceptor, cloned receptors (Ki)
T4 sequence (P25100 1-572): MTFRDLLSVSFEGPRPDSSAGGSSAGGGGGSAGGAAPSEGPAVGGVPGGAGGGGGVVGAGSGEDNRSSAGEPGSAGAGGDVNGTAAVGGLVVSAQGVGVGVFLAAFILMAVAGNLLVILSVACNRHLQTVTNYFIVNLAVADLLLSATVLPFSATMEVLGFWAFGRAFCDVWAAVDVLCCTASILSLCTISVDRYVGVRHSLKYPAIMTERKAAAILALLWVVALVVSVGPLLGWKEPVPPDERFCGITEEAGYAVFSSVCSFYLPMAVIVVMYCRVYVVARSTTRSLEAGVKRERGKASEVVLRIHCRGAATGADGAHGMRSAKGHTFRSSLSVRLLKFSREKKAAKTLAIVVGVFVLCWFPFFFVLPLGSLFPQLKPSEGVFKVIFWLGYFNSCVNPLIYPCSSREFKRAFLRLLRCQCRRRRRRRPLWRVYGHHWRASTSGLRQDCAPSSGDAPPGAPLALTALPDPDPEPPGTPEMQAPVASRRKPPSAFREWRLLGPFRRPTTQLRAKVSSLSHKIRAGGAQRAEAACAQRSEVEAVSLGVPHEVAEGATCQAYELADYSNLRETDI
Protocol: as §1, §2, §3, §4

α1L adrenoceptor = molecular target: T5, α1L adrenoceptor (Oryctolagus cuniculus, UniProt O02824); assay: Functional antagonism of noradrenaline-induced contractions of rabbit aorta pretreated with chloroethylclonidine; type: biochemical; details: NA-induced contractions of rabbit aorta pretreated with chloroethylclonidine
T5 sequence (O02824 1-466): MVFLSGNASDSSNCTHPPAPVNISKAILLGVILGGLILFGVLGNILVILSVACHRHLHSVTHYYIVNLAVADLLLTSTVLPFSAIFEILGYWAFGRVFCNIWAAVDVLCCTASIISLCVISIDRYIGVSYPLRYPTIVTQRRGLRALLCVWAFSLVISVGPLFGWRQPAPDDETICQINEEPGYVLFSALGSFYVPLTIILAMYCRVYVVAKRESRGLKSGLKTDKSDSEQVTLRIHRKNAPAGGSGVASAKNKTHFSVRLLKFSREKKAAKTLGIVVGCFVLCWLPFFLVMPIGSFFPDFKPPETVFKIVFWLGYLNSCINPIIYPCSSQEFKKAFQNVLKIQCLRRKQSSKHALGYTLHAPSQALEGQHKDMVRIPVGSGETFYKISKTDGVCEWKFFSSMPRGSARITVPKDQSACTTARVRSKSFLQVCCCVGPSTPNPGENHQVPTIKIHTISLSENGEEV
Protocol: Adult male New Zealand rabbits were sacrificed by cervical dislocation. The aorta was removed, placed in Krebs-Henseleit buffer and dissected free of adhering tissue. […] Desmethylimipramine (0.1 μm) and corticosterone (1 μM) to block neuronal and extraneuronal uptake of NA, (±)-propranol (1 μM) to block β adrenoceptors and yohimbine (0.1 μM) to block α2 adrenoceptors, were added to the buffer.
The preparations were allowed to equilibrate for 60 minutes and then primed every thirty minutes with 10 μM NA for three times. The aortic rings were then incubated with the alkylating agent chloroethylclonidine (5×10^−5 M) for 30 minutes and then washed extensively three times (in 0.5 hours) before constructing the NA-concentration/response curve. After washout of NA and re-equilibration of the tissue (45 minutes), the drug to be tested was added and, after 30 minutes, a second NA-cumulative-concentration/response curve constructed.
Each antagonist concentration was tested using 2-3 aortic rings from different rabbits.
Dose ratios (i.e., the ratio between the concentrations of NA required to produce half-maximal response in the presence and in the absence of the test antagonist) were calculated for each concentration of the compounds. The logarithm of these dose ratio-1 was plotted against the logarithm of the compound concentrations (Schild plot) to evaluate the affinity constant Kb.
When only one or two concentrations of the test compounds were utilised, the apparent Kb value was calculated using the formula: Kb=[B]/(DOSE RATIO-1), where B is the antagonist concentration.

| SMILES | Ki [1] | Ki [2] | Ki [3] | Ki [4] | Functional affinity for the α1L adrenoceptor subtype, pKb (α1L adrenoceptor) |
| --- | --- | --- | --- | --- | --- |
| COc1ccc(Cl)cc1N1CCN(CCCNC(=O)c2cccc3c(=O)c(C)c(C(=O)N(C)C)oc23)CC1 [Example 6, 8-{3-[4-(5-Chloro-2-methoxyphenyl)-1-piperazinyl]propylcarbamoyl}-3-methyl-2-dimethylcarbamoyl-4-oxo-4H-1-benzopyran] | 0.23 nM | 3.56 nM | 68.4 nM | 3.83 nM | 8.55 |
| COc1ccc(C(F)(F)F)cc1N1CCN(CCCNC(=O)c2cccc3c(=O)c(C)c(-c4ccccc4)oc23)CC1 [Example 17, 8-{3-[4-(2-Methoxy-5-trifluoromethylphenyl)-1-piperazinyl]propylcarbamoyl}-3-methyl-4-oxo-2-phenyl-4H-1-benzopyran] | 1.6 nM | 9.42 nM | – | 13.1 nM | 8.03 |
| COc1ccc(Cl)cc1N1CCN(CCCNC(=O)c2cccc3c(=O)c(C)c(C#N)oc23)CC1 [Example 11, 8-{3-[4-(5-Chloro-2-methoxyphenyl)-1-piperazinyl]propylcarbamoyl}-2-cyano-3-methyl-4-oxo-4H-1-benzopyran] | 0.38 nM | 0.78 nM | 24.4 nM | 2.72 nM | 8.45 |
| Cc1c(-c2ccccc2)oc2c(C(=O)NCCCN3CCN(c4ccc(F)cc4OCC(F)(F)F)CC3)cccc2c1=O [Example 19, 8-<3-{4-[4-Fluoro-2-(2,2,2-trifluoroethoxy)phenyl]-1-piperazinyl}propylcarbamoyl>-3-methyl-4-oxo-2-phenyl-4H-1-benzopyran] | 0.136 nM | 2.61 nM | 22.4 nM | 4.79 nM | 8.72 |
| Cc1c(C(N)=O)oc2c(C(=O)NCCCN3CCN(c4cc(F)ccc4OCC(F)(F)F)CC3)cccc2c1=O [Example 8, 2-Carbamoyl-8-<3-{4-[5-fluoro-2-(2,2,2-trifluoroethoxy)phenyl]-1-piperazinyl}-propylcarbamoyl>-3-methyl-4-oxo-4H-1-benzopyran] | 0.144 nM | 9.91 nM | 39.5 nM | 3.02 nM | 9 |
| COc1cc2nc(N3CCN(C(=O)C4CCCO4)CC3)nc(N)c2cc1OC (stereo not shown) [terazosin, reference compound] | – | – | – | 2.4 nM | 7.25 |
| COc1ccc(Cl)cc1N1CCN(CCCNC(=O)c2cccc3c(=O)c(C)c(NC(=O)OC(C)(C)C)oc23)CC1.O [Example 3, 2-(1,1-Dimethylethoxycarbonylamino)-8-{3-[4-(5-chloro-2-methoxyphenyl)-1-piperazinyl]propylcarbamoyl}-3-methyl-4-oxo-4H-1-benzopyran monohydrate] | 0.2 nM | 0.32 nM | 81.9 nM | 0.45 nM | 8.43 |
